According to US9326520B2, “Pest repellent comprising geranylacetone” (The University Court of the University of Aberdeen, priority 2006, dated 2016):
“And” between values parts separate entries of the source, which are not always exact repeats. Equal entries are not always repeated. “Also recorded” adds a separate entry of the source.

Experiments:
[1] = system: Culex quinquefasciatus; test: Laboratory-based repellency test, treated forearm in cage, protective efficacy (PE); format: in vivo; conditions: for Mean % P.E ± S.E: landings over 3 min
Description: (§1) The mosquitoes were laboratory-reared using standard conditions at ICIPE, Duduville. 5-7 day old female mosquitoes that had been starved for 18 h but previously fed on 6% glucose solution were used. Eighteen cages (50×50×50 cm) were used with 25 female mosquitoes in each. Six human volunteers with no or little allergic reaction to bites were selected. Test solutions (0.5 ml in acetone) were applied to a volunteer's forearms and the hand was covered with a glove. Acetone alone (0.5 ml) served as a control on the other arm. The control arm was inserted into a cage and the number of landings were recorded over 3 min. The treated arm was then inserted as above. Repellency data was expressed as protective efficacy (PE) and was calculated by using the formula PE=(% control mean−% test mean/% control mean). The data were transformed and subjected to an ANOVA.
(§2) Each compound was tested at concentrations ranging from 0.0001% to 10%. […]

[2] = system: Anopheles gambiae; test: as above; format: in vivo; conditions: An. gambiae, landings over 3 min
Description: as §1, §2

[3] = system: C. impunctatus midges; test: Field trial of repellency (WHO protocol), compounds on stockings worn on forearms of volunteers; format: in vivo, Culicoides impunctatus; conditions: for repellency compared with DEET at 1%: over 1 min, single compounds at 1%
Description: FIG. 6. Repellency of EAG-active human-derived compounds applied to the forearms of volunteers and tested on Culicoides impuctatus midges in the field. a) over 1 minute and b) over 5 minutes.
A field trial was made in the Ormsary estate, Argyllshire, during the summer 2005 in a region with an extremely high natural population of C. impunctatus. […] Compounds were applied to (nylon) stockings and worn on the forearms of volunteers and were tested at three concentrations in ethanol (1%, 0.01% and 0.0001%). All compounds and mixtures were compared against the WHO approved repellent diethyltoluamide (DEET) (1% and 40%).

[4] = system: Aedes aegypti host-seeking female mosquitoes; test: Y-tube olfactometer: response of mosquitoes to hand of attractive volunteer with and without chemical; format: in vivo
From the text: FIG. 5. […] (−1=1×10^−1 g μL^−1; −2=1×10^−2 g μL^−1, etc). Back transformed means+95% confidence intervals (calculated for a binomial distribution) from the logistic scale are shown.
A convenient bioassay was established following work by Geier et al. (1999)^17 using a Y-tube olfactometer in which mosquitoes, Ae. aegypti, could “choose” between volatile skin emanations and air alone, the “choice” being expressed as flight activity or relative attraction. Initially, the source of skin emanations was from individual hands of a series of human volunteers.
These compounds (from Sigma Aldrich) were tested individually at different concentrations in the olfactometer against Ae. aegypti. The upwind flight activity, relative attraction and probing activity (feeding) of the mosquitoes to the hand of an attractive volunteer with and without the chemicals was recorded.

[5] = system: Ae. aegypti; conditions: H. D. Douglas et al. J. Med. Entomol. 42(4): 647-651 (2005); cited from earlier work
[6] = hand of attractive volunteer with chemical vs without, data not shown

Compound	Mean % P.E ± S.E ([2]; 0.001 % Conc. in acetone) [%]	Mean % P.E ± S.E ([2]; 0.01 % Conc. in acetone)	Mean % P.E ± S.E ([2]; 0.1 % Conc. in acetone)	Mean % P.E ± S.E ([2]; 1 % Conc. in acetone)	Mean % P.E ± S.E ([2]; 10 % Conc. in acetone)	Mean % P.E ± S.E ([1]; 0.0001 % Conc. in acetone) [%]	Mean % P.E ± S.E ([1]; 0.001 % Conc. in acetone) [%]	Mean % P.E ± S.E ([1]; 0.01 % Conc. in acetone) [%]	Mean % P.E ± S.E ([1]; 0.1 % Conc. in acetone) [%]	Mean % P.E ± S.E ([1]; 1 % Conc. in acetone) [%]	Mean % P.E ± S.E ([1]; 10 % Conc. in acetone)	repellency compared with DEET at 1% [3]	other results
CCCCCCCCCC=O [decanal]	–	–	–	–	–	–	–	–	–	–	–	–	ranking of treatments (repellency) [1]: most effective treatment
CC(=O)CCC=C(C)CCC=C(C)C [geranylacetone, 6,10-dimethyl-5,9-undecadien-2-one]	7.25 ± 9.5	11.17 ± 12.9%	30.13 ± 11%	76.97 ± 5.9%	100%	4.8	10	23.7	33.2 ± 4.5	84.1 ± 4.2	100 ± 0%	significantly greater than DEET at 1%	Mean % P.E ± S.E ([2]; 10 % Conc. in acetone, listed as geranylacetonedecanal): 100 ± 0%; Mean % P.E ± S.E ([1]; 10 % Conc. in acetone, listed as Geranylacetone): 100%; repellency ([3]; all concentrations tested (1%, 0.01% and 0.0001% in ethanol)): effective at all concentrations tested; % repellency compared with DEET ([3]; full 5 min testing period, single compound at 1%): higher % repellency than DEET; these differences were not significant; probing activity (feeding) [4, 6]: significantly reduced; relative attraction [4, 6]: caused a reduction in relative attraction
CCN(CC)C(=O)c1cccc(C)c1 [DEET, diethyltoluamide, reference compound]	6.23 ± 1.7	20% and 20.65 ± 6.4%	83% and 83.78 ± 3.9%	100% and 100 ± 0%	100% and 100 ± 0%	–	7.6 ± 1.8	12.0 ± 1.7	76.9 ± 5.4	98.2 ± 1.1	100% and 100 ± 0%	–	–
CCCCCCCC=O [octanal]	–	–	–	–	–	–	–	–	–	–	–	–	repellent for Ae. aegypti (described previously) [5]: described previously as a repellent
CC(=O)CCC=C(C)C [6-methyl-5-hepten-2-one, 6-Methyl-5-hepten-2-one]	1.57 ± 11.2	19.2 ± 5.5%	34.07 ± 6.6%	35.73 ± 8.7%	74.75 ± 6.1%	8.0	12.7	21.8	30.1	49.7 ± 2.9	100.0 ± 0%	more effective than DEET; also recorded: significantly greater than DEET at 1%	Mean % P.E ± S.E ([2]; 0.0001 % Conc. in acetone): 0.85 ± 3.9%; repellency ([3]; 1 min time, 0.001%): significantly repellent; repellency ([3]; 1 min time, 0.01%): not repellent; repellency ([3]; 1 min time, 1%): strongly repellent; repellency ([3]; over 5 min): repellent only at 1%
CCCCCCCCC=O [nonanal]	–	–	–	–	–	–	–	–	–	–	–	–	flight activity compared with the untreated hand ([4]; at only one dose): significantly greater flight activity than the untreated hand
